Values joined by “and” are separate entries in the source; they are usually repeats but may differ in a detail not shown here. Identical values can stand only once.
How the values were obtained:
[1] = biological target: T1, rat NaP2b (SLC34A2) (Rattus norvegicus, UniProt Q9JJ09); test: Inhibition of NaP2b-mediated Pi (33P) uptake in transfected HEK293 cells, rat NaP2b; format: cell-based; conditions: 33P Pi uptake, 0.1 mM phosphate, value given as pIC50 range
T1 construct: host or cells: HEK293
T1 sequence (Q9JJ09 1-695): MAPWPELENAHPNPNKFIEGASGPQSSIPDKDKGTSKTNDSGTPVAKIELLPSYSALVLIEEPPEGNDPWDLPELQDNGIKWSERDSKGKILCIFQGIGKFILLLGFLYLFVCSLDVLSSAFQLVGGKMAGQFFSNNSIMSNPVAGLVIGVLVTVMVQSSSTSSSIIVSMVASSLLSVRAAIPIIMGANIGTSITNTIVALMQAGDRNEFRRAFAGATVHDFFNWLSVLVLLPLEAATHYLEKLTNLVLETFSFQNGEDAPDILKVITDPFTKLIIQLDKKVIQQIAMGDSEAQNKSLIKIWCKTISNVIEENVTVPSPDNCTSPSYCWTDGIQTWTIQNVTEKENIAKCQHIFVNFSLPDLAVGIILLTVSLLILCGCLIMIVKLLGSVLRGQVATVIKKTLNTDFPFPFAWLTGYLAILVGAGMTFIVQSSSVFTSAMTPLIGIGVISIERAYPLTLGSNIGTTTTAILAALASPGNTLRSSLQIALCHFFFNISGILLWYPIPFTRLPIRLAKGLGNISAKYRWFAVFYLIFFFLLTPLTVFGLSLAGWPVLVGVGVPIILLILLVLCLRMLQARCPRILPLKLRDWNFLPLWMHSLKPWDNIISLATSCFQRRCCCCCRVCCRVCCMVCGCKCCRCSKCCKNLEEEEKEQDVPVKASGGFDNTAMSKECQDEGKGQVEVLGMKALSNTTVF
Procedure, shortened: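 HEK293 cells were transiently transfected with NaP2b cDNA using Lipofectamine and grown near confluence. Compounds were tested at twelve concentrations from 0.1 nM to 30 uM in duplicate, and 33P-phosphate uptake was counted by scintillation after lysis. Results are expressed as pIC50.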

[2] = Determination of compound Cmax and AUC after oral gavage (plasma LC-MS/MS); format: in vivo, Sprague-Dawley rats; conditions: Sprague-Dawley, rat, plasma, po, Structure (I) examples
Procedure, shortened: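 Sprague-Dawley rats dosed by oral gavage at nominal 2.5 or 10 mg/kg; blood drawn at 0.5, 1, 2 and 4 h into K2EDTA. Plasma protein-precipitated with acetonitrile plus internal standard and analysed by LC-MS/MS against a plasma standard curve to derive Cmax and AUC.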

[3] = Table 15, actual oral dose 3-15 mg/kg, plasma 0.5-4 h

| SMILES | IC50 [1] | AUC [2, 3] [ng·h/mL] | Cmax [2, 3] [ng/mL] | AUC ([2]; Table 15, actual oral dose 15-40 mg/kg, plasma 0.5-4 h) [ng·h/mL] | Cmax ([2]; Table 15, plasma 0.5-4 h) [ng/mL] |
| --- | --- | --- | --- | --- | --- |
| O=C(O)c1cccc(SCc2cccc(C(=O)Nc3ccc(N4CCCCC4)cc3-c3cc(C(=O)NCc4cccc(C(F)(F)F)c4)ccn3)c2)c1 [Example 8.1, 3-(3-(4-(piperidin-1-yl)-2-(4-(3-(trifluoromethyl)benzylcarbamoyl)pyridin-2-yl)phenylcarbamoyl)benzylthio)benzoic acid] | 10000 to 31600 nM and < 1000 nM | < 30 | < 10 |  |  |
| O=C(NCc1cccc(C(F)(F)F)c1)c1ccnc(-c2cc(N3CCCCC3)ccc2NC(=O)c2cccc(CSc3ccc(C(=O)O)c(Br)c3)c2)c1 [Example 8.21] | 1000 to 7940 nM | < 30 | < 30 |  |  |
| CN(CCN1CCOCC1)C(=O)c1cccc(C(=O)Nc2ccc(N3CCCCC3)cc2-c2cc(C(=O)NCc3cccc(C(F)(F)F)c3)ccn2)c1 [Example 80, N1-Methyl-N1-(2-morpholinoethyl)-N3-(4-(piperidin-1-yl)-2-(4-((3-(trifluoromethyl)benzyl)carbamoyl)pyridin-2-yl)phenyl)isophthalamide] | 1000 to 7940 nM |  | < 10 |  |  |
| CN(CCOCCOCCOCCC(=O)O)C(=O)Cc1cccc(SCc2cccc(C(=O)Nc3ccc(N4CCCCC4)cc3-c3cc(C(=O)NCc4cccc(C(F)(F)F)c4)ccn3)c2)c1 [Example 138] | 1000 to 7940 nM | < 10 | < 10 |  |  |
| CCN(CC)c1ccc(NC(=O)c2cccc(CSCCOCCOCCOCCOCCOCCOCCOCCOCCC(=O)O)c2)c(-c2cc(C(=O)N[C@H]3CCCc4ccccc43)ccn2)c1 [Example 161, (S)-1-(3-(4-(diethylamino)-2-(4-(1,2,3,4-tetrahydronaphthalen-1-ylcarbamoyl)pyridin-2-yl)phenylcarbamoyl)phenyl)-5,8,11,14,17,20,23,26-octaoxa-2-thianonacosan-29-oic acid] | 1000 to 7940 nM | < 10 | < 10 |  |  |
| CCN(CC)c1ccc(NC(=O)c2cccc(CSCCOCCOCCOCCOCCOCCOCCOCCOCCC(=O)O)c2)c(-c2cc(C(=O)NCc3cccc(C(F)(F)F)c3)ccn2)c1 [Example 166, 1-(3-(4-(diethylamino)-2-(4-(3-(trifluoromethyl)benzylcarbamoyl)pyridin-2-yl)phenylcarbamoyl)phenyl)-5,8,11,14,17,20,23,26-octaoxa-2-thianonacosan-29-oic acid] | 1000 to 7940 nM | < 10 | < 10 | < 50 | > 50 |
| CCN(CC)c1ccc(NC(=O)c2cccc(C(=O)N(C)CCOCCOCCOCCC(=O)O)c2)c(-c2cc(C(=O)NCc3cccc(C(F)(F)F)c3)ccn2)c1 [Example 188, 1-(3-((4-(diethylamino)-2-(4-((3-(trifluoromethyl)benzyl)carbamoyl)pyridin-2-yl)phenyl)carbamoyl)phenyl)-2-methyl-1-oxo-5,8,11-trioxa-2-azatetradecan-14-oic acid] | 1000 to 7940 nM | < 10 | < 10 |  |  |
| CCCN(CCC)c1ccc(NC(=O)c2cccc(COCCOCCOCCOCCOCCOCCOCCOCCOC)c2)c(-c2cc(C(=O)NCc3cccc(C(F)(F)F)c3)ccn2)c1 [Example 200, 2-(2-(3-(2,5,8,11,14,17,20,23,26-nonaoxaheptacosyl)benzamido)-5-(dipropylamino)phenyl)-N-(3-(trifluoromethyl)benzyl)isonicotinamide] | 1000 to 7940 nM | < 30 | < 30 |  |  |
| CCN(CC)c1ccc(NC(=O)c2cccc(CCCOCCOCCOCCOCCC(=O)O)c2)c(-c2cc(C(=O)NCc3cccc(C(F)(F)F)c3)ccn2)c1 [Example 251, 16-(3-(4-(diethylamino)-2-(4-(3-(trifluoromethyl)benzylcarbamoyl)pyridin-2-yl)phenylcarbamoyl)phenyl)-4,7,10,13-tetraoxahexadecan-1-oic acid] | 1000 to 7940 nM | < 10 | < 10 |  |  |
| CCN(CC)c1ccc(NC(=O)c2cccc(CSCCOCCOCCOCCOCCOCCOCCOCCOC)c2)c(-c2cc(C(=O)NCc3cccc(C(F)(F)F)c3)ccn2)c1 [Example 265, 2-(2-(3-(2,5,8,11,14,17,20,23-octaoxa-26-thiaheptacosan-27-yl)benzamido)-5-(diethylamino)phenyl)-N-(3-(trifluoromethyl)benzyl)isonicotinamide] | < 1000 nM | < 30 | < 30 |  |  |

The next lines start with the values.

| IC50 [1] | AUC [2, 3] [ng·h/mL] | Cmax [2, 3] [ng/mL] | AUC ([2]; Table 15, actual oral dose 15-40 mg/kg, plasma 0.5-4 h) [ng·h/mL] | Cmax ([2]; Table 15, plasma 0.5-4 h) [ng/mL] | SMILES |
| --- | --- | --- | --- | --- | --- |
| < 1000 nM | < 10 | < 10 |  |  | O=C(O)CCOCCOCCOCCOCCSCc1cccc(C(=O)Nc2ccc(N3CCCCC3)cc2-c2cc(C(=O)N[C@H]3CCCc4ccccc43)ccn2)c1 [Example 142, 1-(3-{[4-(piperidin-1-yl)-2-(4-{[(1S)-1,2,3,4-tetrahydronaphthalen-1-yl]carbamoyl}pyridin-2-yl)phenyl]carbamoyl}phenyl)-5,8,11,14-tetraoxa-2-thiaheptadecan-17-oic acid] |
| < 1000 nM | < 10 | < 10 |  |  | CCN(CC)c1ccc(NC(=O)c2cccc(CSc3cccc(CC(=O)N(C)CCOCCOCCOCCC(=O)O)c3)c2)c(-c2cc(C(=O)NCc3cccc(C(F)(F)F)c3)ccn2)c1 [Example 144, 3-(2-(2-(2-(2-(3-(3-(4-(diethylamino)-2-(4-(3-(trifluoromethyl)benzylcarbamoyl)pyridin-2-yl)phenylcarbamoyl)benzylthio)phenyl)-N-methylacetamido)ethoxy)ethoxy)ethoxy)propanoic acid] |
| < 1000 nM | < 10 | < 10 |  |  | CCN(CC)c1ccc(NC(=O)c2cccc(CSCCOCCOCCOCCOCCC(=O)O)c2)c(-c2cc(C(=O)NCc3cccc(C(F)(F)F)c3)ccn2)c1 [Example 162, 1-(3-(4-(diethylamino)-2-(4-(3-(trifluoromethyl)benzylcarbamoyl)pyridin-2-yl)phenylcarbamoyl)phenyl)-5,8,11,14-tetraoxa-2-thiaheptadecan-17-oic acid] |
| < 1000 nM | < 30 | < 30 |  |  | O=C(O)CCOCCOCCOCCNC(=O)c1cccc2c1ccn2Cc1cccc(C(=O)Nc2ccc(N3CCCCC3)cc2-c2cc(C(=O)N[C@H]3CCCc4ccccc43)ccn2)c1 [Example 181, (S)-1-oxo-1-(1-(3-(4-(piperidin-1-yl)-2-(4-(1,2,3,4-tetrahydronaphthalen-1-ylcarbamoyl)pyridin-2-yl)phenylcarbamoyl)benzyl)-1H-indol-4-yl)-5,8,11-trioxa-2-azatetradecan-14-oic acid] |
| < 1000 nM | < 30 | < 30 |  |  | O=C(O)CCOCCOCCOCCOCCCc1cccc(C(=O)Nc2ccc(N3CCCCC3)cc2-c2cc(C(=O)N[C@H]3CCCc4ccccc43)ccn2)c1 [Example 252, 3-(2-(2-(2-(3-(3-((2-(4-(((S)-1,2,3,4-tetrahydronaphthalen-1-yl)carbamoyl)pyridin-2-yl)-4-(piperidin-1-yl)phenyl)carbamoyl)phenyl)propoxy)ethoxy)ethoxy)ethoxy)propanoic acid] |
| < 1000 nM | > 50 | < 50 |  |  | CCN(CC)c1ccc(NC(=O)c2cccc(CCCOCCOCCOCCOCCOCCOCCOCCOCCOC)c2)c(-c2cc(C(=O)N[C@H]3CCCc4ccccc43)ccn2)c1 [Example 261, (S)-2-(2-(3-(2,5,8,11,14,17,20,23,26-nonaoxanonacosan-29-yl)benzamido)-5-(diethylamino)phenyl)-N-(1,2,3,4-tetrahydronaphthalen-1-yl)isonicotinamide] |
